Assay results reported in BindingDB's records for doi:10.1021/bi300955k (Dalhousie University, 2012).

Columns and labels:
Acetylcholinesterase = Acetylcholinesterase (Homo sapiens, UniProt P22303); assay: Inhibition Assay
Text: (§1) Inhibition constant using AChE or BuChE.

Cholinesterase = Cholinesterase (Homo sapiens, UniProt P06276); assay: Inhibition Assay
Text: as §1

Cholinesterase, sequence (P06276 whole entry): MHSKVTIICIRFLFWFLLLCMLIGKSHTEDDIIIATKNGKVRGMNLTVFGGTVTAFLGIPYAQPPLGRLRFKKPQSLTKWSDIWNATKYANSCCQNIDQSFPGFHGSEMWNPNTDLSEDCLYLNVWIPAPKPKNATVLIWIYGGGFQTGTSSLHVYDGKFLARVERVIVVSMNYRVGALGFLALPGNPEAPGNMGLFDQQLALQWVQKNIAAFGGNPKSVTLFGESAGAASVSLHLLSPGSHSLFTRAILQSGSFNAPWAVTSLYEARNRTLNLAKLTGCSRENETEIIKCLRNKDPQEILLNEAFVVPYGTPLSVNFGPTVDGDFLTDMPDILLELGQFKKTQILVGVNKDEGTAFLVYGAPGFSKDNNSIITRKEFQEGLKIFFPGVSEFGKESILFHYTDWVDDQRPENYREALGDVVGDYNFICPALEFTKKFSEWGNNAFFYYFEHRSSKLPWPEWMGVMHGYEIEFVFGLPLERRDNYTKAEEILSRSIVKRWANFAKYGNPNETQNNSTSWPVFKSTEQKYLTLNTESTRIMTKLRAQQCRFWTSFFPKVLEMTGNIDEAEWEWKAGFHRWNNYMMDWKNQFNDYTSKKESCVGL
Acetylcholinesterase, sequence (P22303 whole entry): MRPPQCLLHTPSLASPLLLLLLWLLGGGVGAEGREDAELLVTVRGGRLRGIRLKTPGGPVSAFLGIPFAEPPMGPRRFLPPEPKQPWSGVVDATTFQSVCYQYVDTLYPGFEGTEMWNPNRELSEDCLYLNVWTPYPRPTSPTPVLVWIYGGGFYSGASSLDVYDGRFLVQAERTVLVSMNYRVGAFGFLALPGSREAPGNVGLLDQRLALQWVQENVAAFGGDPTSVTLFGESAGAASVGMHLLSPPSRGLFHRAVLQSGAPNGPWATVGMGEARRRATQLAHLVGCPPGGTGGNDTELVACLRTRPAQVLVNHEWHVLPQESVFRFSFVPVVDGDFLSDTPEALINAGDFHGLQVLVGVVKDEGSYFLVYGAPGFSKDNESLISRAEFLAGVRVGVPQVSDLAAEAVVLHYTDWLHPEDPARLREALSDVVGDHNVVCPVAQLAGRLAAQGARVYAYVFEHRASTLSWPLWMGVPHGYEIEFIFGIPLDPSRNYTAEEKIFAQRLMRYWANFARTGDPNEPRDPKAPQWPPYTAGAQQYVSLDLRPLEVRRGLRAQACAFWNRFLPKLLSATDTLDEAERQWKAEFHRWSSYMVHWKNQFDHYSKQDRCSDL

Row | Structure (SMILES) | Ki (Acetylcholinesterase) [nM] | Ki (Cholinesterase) [nM]
1 | CC(C)N(CCNC(=O)N1c2ccccc2Sc2ccccc21)C(C)C | 1640 | 21
2 | CC[N+](C)(C)c1cccc(O)c1 [Edrophonium Chloride, 3] | – | 198000
3 | Cc1ccc2c(c1)sc(-c1ccc(N(C)C)cc1)[n+]2C [Thioflavin T, 1] | 4990 | 3620
4 | O=C(c1c2ccccc2cc2ccccc12)N1c2ccccc2Sc2ccccc21 [Anthracen-9-yl (10H-phenothiazine-10yl) methanone, 5] | – | 16
